Assay results from PMC3755734 (Angewandte Chemie (International ed. in English), 2011).

Key:
Format in all cases: biochemical
[1] = biological target: CKIε (Homo sapiens, UniProt P49674); experiment: in vitro kinase assay
[2] = biological target: T1, CKIα (Homo sapiens, UniProt P48729); experiment: in vitro kinase assay
T1 sequence (P48729 2-337): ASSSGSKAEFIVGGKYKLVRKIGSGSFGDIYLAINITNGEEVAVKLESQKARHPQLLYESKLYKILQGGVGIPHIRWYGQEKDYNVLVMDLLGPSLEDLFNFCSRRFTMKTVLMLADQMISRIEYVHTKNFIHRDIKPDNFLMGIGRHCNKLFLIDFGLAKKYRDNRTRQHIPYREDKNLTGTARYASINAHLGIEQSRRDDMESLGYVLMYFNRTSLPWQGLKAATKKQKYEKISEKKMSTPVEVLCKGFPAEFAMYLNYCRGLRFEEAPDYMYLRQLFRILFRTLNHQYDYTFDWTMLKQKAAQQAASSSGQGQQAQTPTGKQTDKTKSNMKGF

[3] = biological target: casein kinase 1 delta (CKIδ) (Homo sapiens, UniProt P48730); experiment: in vitro kinase assay IC50
Chain of casein kinase 1 delta (CKIδ) (P48730 whole entry): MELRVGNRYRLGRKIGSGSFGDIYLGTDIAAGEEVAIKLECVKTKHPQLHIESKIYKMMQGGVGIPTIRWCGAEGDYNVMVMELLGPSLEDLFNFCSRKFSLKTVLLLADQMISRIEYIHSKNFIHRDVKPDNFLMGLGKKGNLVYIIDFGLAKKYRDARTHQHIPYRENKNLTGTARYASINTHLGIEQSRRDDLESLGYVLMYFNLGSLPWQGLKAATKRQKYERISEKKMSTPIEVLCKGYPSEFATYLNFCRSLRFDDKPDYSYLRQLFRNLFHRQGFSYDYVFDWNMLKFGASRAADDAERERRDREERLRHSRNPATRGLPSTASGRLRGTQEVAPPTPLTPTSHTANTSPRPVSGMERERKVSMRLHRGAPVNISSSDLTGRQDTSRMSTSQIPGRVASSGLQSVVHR

Chain of CKIε (P49674 whole entry): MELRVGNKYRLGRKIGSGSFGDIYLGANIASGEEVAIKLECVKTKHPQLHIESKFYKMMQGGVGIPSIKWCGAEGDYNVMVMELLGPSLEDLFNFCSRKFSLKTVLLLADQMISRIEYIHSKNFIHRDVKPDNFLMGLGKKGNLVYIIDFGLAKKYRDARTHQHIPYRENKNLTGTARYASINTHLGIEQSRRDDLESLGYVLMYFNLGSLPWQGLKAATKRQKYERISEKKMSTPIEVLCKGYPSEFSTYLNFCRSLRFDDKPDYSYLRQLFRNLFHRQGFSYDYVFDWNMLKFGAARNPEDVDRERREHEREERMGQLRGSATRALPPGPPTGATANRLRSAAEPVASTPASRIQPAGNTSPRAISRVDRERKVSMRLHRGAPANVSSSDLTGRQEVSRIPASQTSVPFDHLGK

With Cc1cc2sc(NC(=O)Cc3ccccc3)nc2cc1Cl [LH846] the IC50 [1] was 1300 nM, the IC50 [2] was 2500 nM and the IC50 [3] was 290 nM.
